Values after ≈ are worked out from the molar mass of the structure shown.

The assay relates to T. cruzi Tulahuen strain C2C4. The assay can be described thus: Activity against T. cruzi (beta-galactosidase expressing parasites in L-6 cells). Format: cell-based, Trypanosoma cruzi. To be noted: Trypanosoma cruzi, TULAHUEN, L6, in Rattus norvegicus, 96 h, trypomastigotes in rat skeletal myoblasts (L-6 cells), 96 h incubation, CPRG/Nonidet read at 540 nm; read-out: Activity (IC50). The method, then:
Activity against T. cruzi. Rat skeletal myoblasts (L-6 cells) were seeded in 96-well microtitre plates at 2000 cells/well in 100 μL RPMI 1640 medium with 10% FBS and 2 mM 1-glutamine. After 24 h the medium was removed and replaced by 100 μl per well containing 5000 trypomastigote forms of T. cruzi Tulahuen strain C2C4 containing the […] (Lac Z) gene (Buckner et al. 1996). After 48 h the medium was removed from the wells and replaced by 100 μl fresh medium with or without a serial drug dilution of eleven 3-fold dilution steps covering a range from 100 to 0.002 μg/ml. After 96 h of incubation the plates were inspected under an inverted microscope to assure growth of the controls and sterility. Then the substrate CPRG/Nonidet (50 μl) was added to all wells. A color reaction developed within 2-6 h and could be read photometrically at 540 nm. Data were analyzed with the graphic programme Softmax Pro (Molecular Devices), which calculated IC50 values by linear regression (Huber 1993) from the sigmoidal dose inhibition curves. Benznidazole is used as control (IC50 0.5±0.2 ug/ml). • Buckner, F. S., C. L. Verlinde, A. C. La Flamme, and W. C. Van Voorhis. 1996. Efficient technique for screening drugs for activity against Trypanosoma cruzi using parasites expressing beta-galactosidase, p. 2592-2597, vol. 40. • Huber, W. Koella, J. C. 1993. A comparison of the three methods of estimating EC50 in studies of drug resistance of malaria parasites. Acta Trop. 55, 257-261.
By IC50 is commonly meant the concentration that inhibits the measured activity by half. Consider `CC[C@H]1CC[C@H](n2c(=O)[nH]c3ccc(NC(C)=O)cc3c2=O)CC1` [Example 56, N-(3-((1r,4r)-4-Ethylcyclohexyl)-2,4-dioxo-1,2,3,4-tetrahydroquinazolin-6-yl)acetamide], for which the IC50 stood at 0.015 µg/mL (≈ 0.0455 µM). As for `CC(=O)Nc1cnc2[nH]c(=O)n(CCC3CCCCC3)c(=O)c2c1` [Example 39, N-(3-(2-cyclohexylethyl)-2,4-dioxo-1,2,3,4-tetrahydropyrido[2,3-d]pyrimidin-6-yl)acetamide], the half-maximal inhibitory concentration (IC50) came to 0.755 µg/mL (≈ 2.29 µM). Consider `CC(=O)Nc1cnc2[nH]c(=O)n([C@H]3CC[C@@H](C(C)(C)C)CC3)c(=O)c2c1` [Example 34, N-[3-(cis-4-tert-Butyl-cyclohexyl)-2,4-dioxo-1,2,3,4-tetrahydro-pyrido[2,3-d]pyrimidin-6-yl)-acetamide], for which the IC50 was 0.36 µg/mL (≈ 1 µM).

On to `CC(C)(C)[C@H]1CC[C@@H](n2c(=O)[nH]c3ncc(N)cc3c2=O)CC1` [Example 27, 6-Amino-3-((1 S,4S)-4-(tert-butyl)-cyclohexyl)pyrido[2,3-d]pyrimidine-2,4(1H.3H)-dione], for which the IC50 was determined as 0.289 µg/mL (≈ 0.913 µM). `CC[C@H]1CC[C@H](n2c(=O)[nH]c3ccc(N)cc3c2=O)CC1` [24 (trans), 6-Amino-3-(trans-4-ethyl-cyclohexyl)-1H-quinazoline-2,4-dione]: the IC50 turned out to be 0.035 µg/mL (≈ 0.122 µM).

(Values after patent US20170114029A1, “TREATMENT OF CHAGAS DISEASE” (UNIVERSITY OF DUNDEE, priority 2014, published 2017).)
